Reference: patent publication US8889874B2, “Imidazolone-chalcone derivatives as potential anticancer agent and process for the preparation thereof” (Council of Scientific and Industrial Research, priority 2010, dated 2014)
Like-named read-outs stand apart in the source and are kept apart here.

What was measured:
Type in all cases: cell-based, human
[1] = test system: Renal cancer cell lines; test: NCI anticancer screen, SRB assay, panel summary; conditions: Homo sapiens, Renal panel
Protocol: (§1) Some of biological activity studies were carried out at the National Cancer Institute (NCI), Maryland, USA.
(§2) The compounds were evaluated for anticancer activity against fifty three human cancer cells derived from nine cancer types (leukemia cell line, non-small-cell lung cell line, colon cell line, CNS cell line, melanoma cell line, ovarian cell line, prostate cell line, and breast cancer cell line) as shown in Table 1. For each compound, dose response curves for each cell line were measured at a minimum of five concentrations at 10 fold dilutions. A protocol of 48 h continuous drug exposure was used and a sulforhodamine B (SRB) protein assay was used to estimate cell viability or growth.

[2] = test system: Ovarian cancer cell lines; test: NCI anticancer screen, SRB assay, panel summary; conditions: Homo sapiens
Protocol: as §1, §2

[3] = test system: Leukemia cancer cell lines; test: NCI anticancer screen, SRB assay, panel summary; conditions: Homo sapiens
Protocol: as §1, §2

[4] = test system: Breast cancer cell lines; test: NCI anticancer screen, SRB assay, panel summary; conditions: Homo sapiens
Protocol: as §1, §2

[5] = test system: Prostate cancer cell lines; test: NCI anticancer screen, SRB assay, panel summary
Protocol: as §1, §2

[6] = test system: Colon cancer cell lines; test: NCI anticancer screen, SRB assay, panel summary; conditions: for GI50: Homo sapiens
Protocol: as §1, §2

[7] = test system: CNS cancer cell lines; test: NCI anticancer screen, SRB assay, panel summary; conditions: for GI50: Homo sapiens
Protocol: as §1, §2

[8] = test system: Melanoma cancer cell lines; test: NCI anticancer screen, SRB assay, panel summary; conditions: for GI50: Homo sapiens
Protocol: as §1, §2

[9] = test system: Non-small cell lung cancer cell lines; test: NCI anticancer screen, SRB assay, panel summary; conditions: Homo sapiens
Protocol: as §1, §2

[10] = test system: TD-47D (breast); test: NCI anticancer screen, SRB assay, 48 h; conditions: Homo sapiens
Method in brief: (§3)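 Sulforhodamine B protein assay read cell growth after 48 h of continuous compound exposure. Dose-response curves per cell line used at least five 10-fold-diluted concentrations, within a panel of fifty-three human lines from nine tumour types.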

[11] = test system: OVCAR-3 (ovarian); test: NCI anticancer screen, SRB assay, 48 h; conditions: Homo sapiens
Method in brief: as §3

[12] = test system: SK-OV-3 (ovarian); test: NCI anticancer screen, SRB assay, 48 h; conditions: Homo sapiens
Method in brief: as §3

[13] = test system: SF-268 (CNS); test: NCI anticancer screen, SRB assay, 48 h; conditions: Homo sapiens
Method in brief: as §3

[14] = test system: NCI-H460 (non-small cell lung); test: NCI anticancer screen, SRB assay, 48 h; conditions: Homo sapiens
Method in brief: as §3

[15] = test system: UACC-62 (melanoma); test: NCI anticancer screen, SRB assay, 48 h; conditions: Homo sapiens
Method in brief: as §3

[16] = test system: SK-MEL-28 (melanoma); test: NCI anticancer screen, SRB assay, 48 h; conditions: Homo sapiens
Method in brief: as §3

[17] = test system: HCT-116 (colon); test: NCI anticancer screen, SRB assay, 48 h; conditions: Homo sapiens
Method in brief: as §3

[18] = test system: SW-620 (colon); test: NCI anticancer screen, SRB assay, 48 h; conditions: Homo sapiens
Method in brief: as §3

[19] = test system: BT-549 (breast); test: NCI anticancer screen, SRB assay, 48 h; conditions: Homo sapiens
Method in brief: as §3

[20] = test system: SF-295 (CNS); test: NCI anticancer screen, SRB assay, 48 h; conditions: Homo sapiens
Method in brief: as §3

[21] = test system: UO-31 (renal); test: NCI anticancer screen, SRB assay, 48 h; conditions: Homo sapiens
Method in brief: as §3

[22] = test system: SF-539 (CNS); test: NCI anticancer screen, SRB assay, 48 h; conditions: Homo sapiens
Method in brief: as §3

[23] = test system: SK-MEL-2 (melanoma); test: NCI anticancer screen, SRB assay, 48 h; conditions: Homo sapiens
Method in brief: as §3

[24] = test system: RXF 393 (renal); test: NCI anticancer screen, SRB assay, 48 h; conditions: Homo sapiens
Method in brief: as §3

[25] = test system: M14 (melanoma); test: NCI anticancer screen, SRB assay, 48 h; conditions: Homo sapiens
Method in brief: as §3

[26] = 48 h exposure, SRB, read-out: GI50
[27] = read-out: pGI50 (-log of molar concentration causing 50% inhibition of net cell growth) (converted)

In the case of `O=C(/C=C/c1cccc(O)c1)c1cccc(-n2cc(-c3ccccc3)[nH]c2=O)c1` [4a, 1-3-[(E)-3-(3-hydroxyphenyl)-2-propenoyl]phenyl-4-phenyl-2,3-dihydro-1H-2-imidazolone], the GI50 ([1]; log of concentration in mol/L causing 50% inhibition of net cell growth, read-out: mean graph midpoint (MG_MID) of Log10 GI50 (converted)) was 4.17 µM, the LC50 ([1]; log of concentration leading to 50% net cell death, read-out: mean graph midpoint (MG_MID) of Log10 LC50 (converted)) was 33.9 µM and the GI50 ([2]; Ovarian panel, log of concentration in mol/L causing 50% inhibition of net cell growth, read-out: mean graph midpoint (MG_MID) of Log10 GI50 (converted)) was 4.68 µM. The LC50 ([2]; Ovarian panel, log of concentration leading to 50% net cell death, read-out: mean graph midpoint (MG_MID) of Log10 LC50 (converted)) was 46.8 µM, the GI50 ([2]; six ovarian cancer cell lines, exposure at least 48 hrs, read-out: GI50, range over the panel) was 2.8 to 11.1 µM and the GI50 ([3]; Leukemia panel, log of concentration in mol/L causing 50% inhibition of net cell growth, read-out: mean graph midpoint (MG_MID) of Log10 GI50 (converted)) was 2.29 µM. It also gave an LC50 ([3]; Leukemia panel, log of concentration leading to 50% net cell death, read-out: mean graph midpoint (MG_MID) of Log10 LC50 (converted)) of at least 100 µM, a GI50 ([3]; two leukemia cancer cell lines (RPMI-8226 and K-562), exposure at least 48 hrs, read-out: GI50, range over the panel) of 2.12 to 3.35 µM and a GI50 ([4]; Breast panel, log of concentration in mol/L causing 50% inhibition of net cell growth, read-out: mean graph midpoint (MG_MID) of Log10 GI50 (converted)) of 4.79 µM. For the same molecule, the LC50 ([4]; Breast panel, log of concentration leading to 50% net cell death, read-out: mean graph midpoint (MG_MID) of Log10 LC50 (converted)) was 72.4 µM, the GI50 ([4]; five breast cancer cell lines, exposure at least 48 hrs, read-out: GI50, range over the panel) was 2.47 to 9.32 µM and the GI50 ([5]; Homo sapiens, log of concentration in mol/L causing 50% inhibition of net cell growth, read-out: mean graph midpoint (MG_MID) of Log10 GI50 (converted)) was 2.82 µM. For the same molecule, the LC50 ([5]; Homo sapiens, log of concentration leading to 50% net cell death, read-out: mean graph midpoint (MG_MID) of Log10 LC50 (converted)) was 49 µM, the “mean graph midpoint (MG_MID) of Log10 TGI” value ([5]; log of concentration resulting in total inhibition of net cell growth) was 4.90 and the “mean graph midpoint (MG_MID) of Log10 LC50” value ([6]; Colon panel, log of concentration leading to 50% net cell death) was 4.55. For the same molecule, the GI50 ([6]; Colon panel, log of concentration in mol/L causing 50% inhibition of net cell growth, read-out: mean graph midpoint (MG_MID) of Log10 GI50 (converted)) was 2.75 µM, the GI50 ([6]; seven colon cancer cell lines, exposure at least 48 hrs, read-out: GI50, range over the panel) was 1.83 to 4.09 µM and the “mean graph midpoint (MG_MID) of Log10 LC50” value ([7]; CNS panel, log of concentration leading to 50% net cell death) was 4.60. It also gave a GI50 ([7]; CNS panel, log of concentration in mol/L causing 50% inhibition of net cell growth, read-out: mean graph midpoint (MG_MID) of Log10 GI50 (converted)) of 5.75 µM, a GI50 ([7]; six CNS cancer cell lines, exposure at least 48 hrs, read-out: GI50, range over the panel) of 1.61 to 18.2 µM and a GI50 ([8]; Melanoma panel, log of concentration in mol/L causing 50% inhibition of net cell growth, read-out: mean graph midpoint (MG_MID) of Log10 GI50 (converted)) of 4.47 µM. The GI50 ([8]; nine melanoma cancer cell lines, exposure at least 48 hrs, read-out: GI50, range over the panel) was 1.85 to 8.26 µM, the “mean graph midpoint (MG_MID) of Log10 LC50” value ([8]; Melanoma panel, log of concentration leading to 50% net cell death) was 4.35 and the GI50 ([9]; Non-small cell lung panel, log of concentration in mol/L causing 50% inhibition of net cell growth, read-out: mean graph midpoint (MG_MID) of Log10 GI50 (converted)) was 6.92 µM. The GI50 ([9]; nine non-small cell lung cancer cell lines, exposure at least 48 hrs, read-out: GI50, range over the panel) was 2.49 to 24.8 µM, the GI50 [10, 26] was 4.24 µM and the GI50 [10, 27] was 4.27 µM. The GI50 [11, 26] was 3.08 µM, the GI50 [11, 27] was 3.09 µM and the GI50 [12, 26] was 11.1 µM. For the same molecule, the GI50 [12, 27] was 11.2 µM, the GI50 [13, 26] was 4.53 µM and the GI50 [13, 27] was 4.57 µM. For the same molecule, the GI50 [14, 26] was 2.49 µM, the GI50 [14, 27] was 2.51 µM and the GI50 [15, 26] was 3.65 µM. The GI50 [15, 27] was 3.63 µM, the GI50 [16, 26] was 5.63 µM and the GI50 [16, 27] was 5.62 µM. The GI50 [17, 26] was 3.02 µM, the GI50 [17, 27] was 3.02 µM and the GI50 [18, 26] was 2.41 µM. The GI50 [18, 27] was 2.4 µM, the GI50 [19, 26] was 9.32 µM and the GI50 [19, 27] was 9.33 µM. For the same molecule, the GI50 [20, 26] was 18.2 µM, the GI50 [20, 27] was 18.2 µM and the GI50 [21, 26] was 2.16 µM. The GI50 [21, 27] was 2.14 µM, the GI50 [22, 26] was 1.98 µM and the GI50 [22, 27] was 2 µM. It also gave a GI50 [23, 26] of 8.26 µM, a GI50 [23, 27] of 8.32 µM and a GI50 ([24]; RXF 393, 48 h exposure, SRB, read-out: GI50) of 1.89 µM. The GI50 ([24]; RXF-393, read-out: pGI50 (-log of molar concentration causing 50% inhibition of net cell growth) (converted)) was 1.91 µM, the GI50 [25, 26] was 4.53 µM and the GI50 [25, 27] was 4.57 µM.
